Test system: human airway smooth muscle (HASM) cells
Experiment: High-throughput traction microscopy (HTTM): RMS traction of HASM cell monolayers on gel in 96-well plates, before and after adding drug
Assay type: cell-based
Conditions: for normalized traction (RMS traction after adding drug/RMS traction before adding drug): control drugs on zero-hit drug plate, FIG. 14; for change in cellular contraction (RMS traction) with increasing doses: FIG. 13, control drugs
Description: Acrylamide gels with 1.8 kPa stiffness and 200-μm thickness were made in 96-well plates, fluorescent markers were coated in a single layer (0.2 μm) onto gel surfaces, and the gel plates were mounted on a fluorescent microscope with motorized stage. On each gel, HASM cells from a single donor were cultured to near confluence. Each well was seeded with 20,000 cells and was serum deprived for 2 days. FIG. 9 illustrates an example layout of a multiwell plate. Imaging of the fluorescent markers included 10× magnification, at 37° C. Three rounds of imaging was performed per plate. For each imaging, two florescent images and one phase image was acquired. Since a common problem for circular shape dishes is rotation of wells, the multi-well plate is optionally a rectangular shape, so that one can easily find the same location in each well. Images of fluorescent markers in each well are taken before cell seeding. In addition, one can store the exact z-position of best sensor focus on each well. It is known that the multi-well plate may not be perfectly flat (e.g., there can be sagging in the middle of the plate). In addition, small changes in sensor depth focus can jeopardize image quality and in turn, traction calculation. Therefore, a prescanning step can aid in screening. After prescanning, wells are seeded with cells and a regular cell culture protocol can be followed. In example 3, a baseline-scanning typically takes fifteen minutes. Drugs can be added and the plates can be incubated for a certain time (e.g., in example 3, incubation occurred over a period of one hour). After incubation, a drug-scan can occur. Thus, three images (prescan, baseline-scan, and drug-scan) are acquired. FIG. 7 is a series of images illustrating a set of three example acquired images. At 700 is a fluorescent image of a bottom bead (0.5 μm). At 710 is a phase contrast image. At 720 is a fluorescent image of a yellow/green bead 0.2 μm. Root mean square values of the absolute traction forces were calculated before and after adding drugs. FIG. 10 illustrates an example process flow diagram 1000 for high-throughput screening using cellular contraction. For example, using the process illustrated in FIG. 10 and a 96 well plate, each scan takes approximately 15 minutes. Since each plate goes through a baseline scan, drug incubation (60 minutes), and a drug scan, it takes approximately 90 minutes per plate. Drug-induced changes in traction provide a simple and physiologically relevant index to identify hits, i.e., those molecules that appreciably reduce cellular traction forces. FIG. 8 is a series of images illustrating six absolute cell traction maps. At 800-850 are cell traction maps for 0.5% Dimethylsulfoxide (DMSO), 1% Fetal Bovine Serum (FBS), 10 μM Y27632, both before and after adding drugs. Y27632 is an inhibitor of the Rho-associated protein kinase, which is known to reduce cellular contraction. […] The treatment of 1% FBS increased RMS traction by 77% from the baseline. The treatment of 10 uM Y-27632 decreased RMS traction by 71% from the baseline. The ratio of RMS tractions of before and after drug treatment (or, normalized contraction) is an index to evaluate the effects of drugs in both stiffening and softening responses.

## C[C@@H](N)[C@H]1CC[C@H](C(=O)Nc2ccncc2)CC1 [Y27632]
10 μM Y27632, FIG. 8
  measured change in RMS traction (ratio of RMS tractions before and after drug treatment, normalized contraction): 0.29
10 uM Y-27632
  decrease of RMS traction from the baseline: 71%
  normalized traction (RMS traction after adding drug/RMS traction before adding drug): decreased traction
  change in cellular contraction (RMS traction) with increasing doses: decreasing cellular contraction in a dose dependent manner

## CC(C)NCC(O)c1ccc(O)c(O)c1 (centres unmarked) [isoproterenol]
  normalized traction (RMS traction after adding drug/RMS traction before adding drug): decreased traction
  change in cellular contraction (RMS traction) with increasing doses: did not appear dose dependent
Increasing doses of isoproterenol, FIG. 13
  decrease in cellular contraction: more than 50%
Iso 50 μM, FIG. 12
  normalized traction: below 0.5
